Laboratory results from patent US20030134892A1, “Compositions for treatment of head and neck cancers, and methods of making and using the same” (priority 2001, published 2003).

Tests used:
JHU012 cells = test: Experiment 1: human orthotopic squamous cell head and neck cancer model, tumor size after treatment; assay type: in vivo, Nu/nu mice; details: 45 days following treatment
Description: The efficacy of paclitaxel microsphere formulations in human orthotopic squamous cell head and neck cancer models were tested below.
Nu/nu mice were injected with 1×10^7 JHU012 cells into the anterior floor of mouth near the genial tubercle of the mandible. 12 days following cell injection, the tumors were approximately 80 mm^3. […] 45 days following treatment, the animals were sacrificed and tumors measured again.

[1] = tested on: human head and neck cancer cell line; test: Experiment 2: human tumor model with radiation, orthotopic tumor in the neck of a nude mouse; assay type: in vivo; details: injected intratumorally three week post cell injection, followed by fractionated radiation (RT) 2 gy/day for 4 days
Description: In this study, the model is also a human head and neck cancer cell line but the tumor was grown orthotopically in the neck of a nude mouse. Three week post cell injection the tumors were injected intratumorally with paclimer and then followed by fractionated radiation, 2 gy/day for 4 days.

Row | SMILES | Tumor Size at end of Experiment 1 (JHU012 cells; 0.15 mmol/kg/day oral, 4 days) [mm^3] | Tumor Size at end of Experiment 1 (JHU012 cells; 24 mg/kg i.p., tumors approx. 80 mm^3 at treatment) [mm^3] | Tumor Size [1] [mm^3]
1 | O=c1[nH]cc(F)c(=O)[nH]1 [5-fu, 5-fluorouracil] | 518.7 ± 96.3 |  | 
2 | CC(=O)O[C@H]1C(=O)[C@@]2(C)[C@H]([C@H](OC(=O)c3ccccc3)[C@]3(O)C[C@H](OC(=O)[C@H](O)[C@@H](NC(=O)c4ccccc4)c4ccccc4)C(C)=C1C3(C)C)[C@]1(OC(C)=O)CO[C@@H]1C[C@@H]2O [ptx, paclitaxel] |  | 973.3 ± 91.7 | 102.3 ± 37.0
